Experimental data published in patent US9156855B2, “Regulation of nitric oxide release and biofilm development” (Newsouth Innovation Pty Limited, priority 2011, dated 2015).
≈ marks a conversion by molar mass, not a printed value. Where a name gives a salt, the structure may show the parent alone. Read-outs that look alike come from different tables or passages of the source.

Assays:
[1] = test system: P. aeruginosa PAO1 wild type cells; assay: Planktonic growth inhibition, minimum inhibitory concentration; format: cell-based; details: M9 minimal medium, 20 h growth, OD600nm of 35% or less
[2] = test system: Established P. aeruginosa biofilms; assay: Anti-biofilm efficacy of tobramycin or ciprofloxacin with compound 21 (Table 1); format: cell-based; details: tobramycin 80 μg/mL or ciprofloxacin 5 μg/mL, 1 h, mean ± SEM
Source text: Values represent the log-fold reductions in cfu compared to control biofilms and are the mean of two independent experiments (±SEM).

[3] = test system: extracellular β-lactamases of P. aeruginosa; format: biochemical; details: P. aeruginosa culture treated 1 h; imipenem 0.5 μg/ml or ampicillin 100 μg/ml
Description: (c) Nitric oxide release in the presence of supernatants of P. aeruginosa cultures grown for 5 h in the absence of antibiotic then treated for 1 h with extracellular β-lactamase-inducing imipenem a 0.5 μg/ml (thick line) or ampicillin at 100 μg/ml (dotted line). Arrows indicate addition of the following to a reaction vial containing 10 mL Tris buffer at pH 7.0: (i) 10 μL of 150 mM Compound 15, (ii) 500 μL supernatant, (iii) 500 μL supernatant, (iv) PTIO.

[4] = test system: β-lactamase (penicillinase, Sigma Aldrich); assay: Amperometric nitric oxide release on exposure to penicillinase; format: biochemical; details: non-NO-releasing cephalosporin alone, in the presence or absence of penicillinase
Description: Arrows indicate addition of the following to a reaction vial containing 10 mL Tris buffer at pH 7.0: (a) 10 μL of 100 mM cephalosporin-3′-diazeniumdiolate, (b) 10 μl 1 U/μl penicillinase, (c) 20 μl 1 U/μl penicillinase, (d) 80 μL of 10 mM free radical scavenger PTIO.
Amperometric characterization of nitric oxide release from Compound 15. (a) Nitric oxide release in the presence of penicillinase at varying pH. Arrows indicate addition of the following to a reaction vial containing 10 mL Tris buffer at pH 9.0 (thick line), 7.0 (dashed line) or 5.0 (dotted line): (i) 10 μL of 150 mM Compound 15, (ii) 5 μL of 0.1 U/μL penicillinase, (iii) 10 μL of 0.1 U/μL penicillinase, (iv) 80 μL of 10 mM free radical scavenger PTIO. (b) Nitric oxide release in the presence of β-lactamase-expressing P. aeruginosa (thick line) or non-β-lactamase-expressing E. coli (dotted line) cell extracts. Arrows indicate addition of the following to a reaction vial containing 10 mL Tris buffer at pH 7.0: (i) 10 μL of 150 mM Compound 15, (ii) 100 μL cell extract, (iii) 200 μL cell extract, (iv) PTIO. […] The data is representative of at least three independent experiments. […]

[5] = test system: P. aeruginosa NSGFP reporter strain (nirS-GFP); format: cell-based; details: control treatments alone
Description: To study nitric oxide release in intact cells of P. aeruginosa, the P. aeruginosa NSGFP reporter strain was used (Barraud et al., 2009). This strain harbours a gene reporter construct that expresses green fluorescent protein (GFP) when the nitric oxide-inducible nirS gene is expressed. P. aeruginosa NSGFP cells were grown with or without ampicillin at subinhibitory concentration (50 μg/ml) to induce β-lactamase activity.

[6] = test system: P. aeruginosa PAO1 wild type biofilms; assay: Biofilm dispersal assay, 24-well batch culture, PAO1; format: cell-based; details: 10 min exposure, alone
Description: P. aeruginosa PAO1 wild type ATCC and MA67 strains, P. aeruginosa FRD1, a mucoid, cystic fibrosis (CF) isolate (Oilman and Chakrabarty, 1981), and the clinical strain P. aeruginosa 18A, which was isolated from CF sputum samples of chronically infected individual in Tasmania (Kirov et al, 2007) were used for biofilm dispersal assays. Biofilms were grown in M9 minimal medium (containing 48 mM Na2HPO4, 22 mM KH2PO4, 9 mM NaCl, 19 mM NH4Cl, pH 7.2, 2 mM MgSO4, 20 mM glucose, and 100 μM CaCl2) in 24-well plates batch cultures at 37° C. with shaking at 200 rpm. After 6 h incubation for PAO1 wild-type biofilms or 24 h incubation for FRD1 and 18A biofilms, treatments were added to each well in less than 1 min per plate and the plates were incubated for a further 10 min at 37° C. with shaking at 200 rpm. Planktonic biomass was quantified by direct measurement of OD600 of the supernatant, and the remaining biofilm biomass was quantified by crystal violet staining (O'Toole and Kolter, 1998).

In the case of `CCN(CC)/[N+]([O-])=N/OCC1=C(C(=O)O)N2C(=O)C(NC(=O)Cc3ccccc3)C2SC1` (stereo not drawn) (as salt: potassium) [Compound 21], the melting point is reported as 35 to 37 °C.

Work on `CCN(CC)/[N+]([O-])=N/OCC1=C(C(=O)O)N2C(=O)C(NC(=O)Cc3ccccc3)C2SC1` (stereo not drawn) [Compound 15] yielded a melting point of 84 to 86 °C.

Compound `CCN(CC)[N+]([O-])=N[O-].[Na+]` [DEA, O^2-sodium 1-(N,N-diethylamino)diazen-1-ium-1,2-diolate] has an MIC [1] of 16 mM.

For `NC[C@H]1O[C@H](O[C@H]2[C@H](O)[C@@H](O[C@H]3O[C@H](CO)[C@@H](O)[C@H](N)[C@H]3O)[C@H](N)C[C@@H]2N)[C@H](N)C[C@@H]1O` [Tobramycin], the “Log Reduction in Biofilm cfu” value ([2]; Compound 21 0 μM (antibiotic alone)) was 2.15 ± 0.16, the “Log Reduction in Biofilm cfu” value ([2]; with Compound 21 10 μM) was 3.92 ± 0.06 and the “Log Reduction in Biofilm cfu” value ([2]; with Compound 21 100 μM) was 3.58 ± 0.15.

For `CC1(C)S[C@@H]2[C@H](NC(=O)[C@H](N)c3ccccc3)C(=O)N2[C@H]1C(=O)O` [ampicillin], the “induction of extracellular β-lactamase expression” value [3] was “failure of ampicillin to induce expression”.

In the case of `CC(=O)OCC1=C(C(=O)O)N2C(=O)[C@@H](NC(=O)Cc3cccs3)[C@H]2SC1` [cephalothin], the MIC ([1]; Pseudomonas aeruginosa, PAO1, read-out: MIC) is reported as 16 mM (≈ 6340 µg/mL), the nitric oxide release [4] is reported as “no release of nitric oxide was observed” and the nitric oxide release ([4]; listed as cefalotin) is reported as “undetectable”. The GFP fluorescence [5] was “no effect on GFP fluorescence” and the biofilm dispersal [6] was “did not induce significant dispersal events”.
